Reference: patent publication US20230278998A1, “Compound containing structure of a five-membered heteroaromatic ring, pharmaceutical compositions thereof and applications thereof” (280 Bio, Inc., priority 2022, published 2023)

Legend:
[1] = target: PARG (389-976) (Homo sapiens (Human), UniProt Q86W56); assay: PARG enzyme inhibition assay (TR-FRET); type: biochemical
Experimental: PARG Enzyme Inhibition Assay
PARG in vitro assays were conducted in standard 384-well plates in a total volume of 15 μL.

[2] = target: PARG (Homo sapiens (Human), UniProt Q86W56); assay: PARG cell inhibition assay (PAR staining after H2O2); type: cell-based; conditions: UWB1.289 cells; value in brackets
Chain of PARG (Q86W56 whole entry): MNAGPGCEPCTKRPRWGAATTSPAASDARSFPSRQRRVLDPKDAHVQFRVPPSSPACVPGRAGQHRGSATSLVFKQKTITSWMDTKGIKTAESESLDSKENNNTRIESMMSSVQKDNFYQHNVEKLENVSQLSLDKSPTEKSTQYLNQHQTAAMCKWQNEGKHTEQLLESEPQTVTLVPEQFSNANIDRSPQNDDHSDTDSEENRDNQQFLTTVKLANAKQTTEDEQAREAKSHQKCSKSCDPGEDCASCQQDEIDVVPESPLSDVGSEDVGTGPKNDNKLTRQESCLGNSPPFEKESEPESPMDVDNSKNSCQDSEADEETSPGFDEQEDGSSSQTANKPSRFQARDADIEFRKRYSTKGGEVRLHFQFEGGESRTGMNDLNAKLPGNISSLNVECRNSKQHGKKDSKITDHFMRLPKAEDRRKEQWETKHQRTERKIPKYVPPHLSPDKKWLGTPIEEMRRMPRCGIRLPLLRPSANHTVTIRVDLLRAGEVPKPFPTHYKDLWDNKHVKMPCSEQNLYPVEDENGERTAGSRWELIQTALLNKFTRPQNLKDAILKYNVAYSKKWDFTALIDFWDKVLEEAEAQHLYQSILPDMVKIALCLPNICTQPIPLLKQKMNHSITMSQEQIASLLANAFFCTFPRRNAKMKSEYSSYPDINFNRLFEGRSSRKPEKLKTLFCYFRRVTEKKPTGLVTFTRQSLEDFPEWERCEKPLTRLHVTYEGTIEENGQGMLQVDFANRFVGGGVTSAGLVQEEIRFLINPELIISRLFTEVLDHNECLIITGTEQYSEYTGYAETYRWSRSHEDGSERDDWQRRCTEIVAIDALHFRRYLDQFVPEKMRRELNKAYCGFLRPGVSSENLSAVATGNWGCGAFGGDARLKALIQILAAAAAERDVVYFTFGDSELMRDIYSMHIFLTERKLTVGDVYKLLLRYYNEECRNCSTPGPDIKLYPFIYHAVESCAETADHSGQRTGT
Experimental: PARG Cell Inhibition Assay
UWB1.289 cells were used and the medium was 50% MEBM+50% 1640+3% FBS+1×PS. The cells were cultured according to ATCC standard operation and the cells were assayed in exponential growth phase for the experiment. Re-suspend cell in medium to a proper concentration, only cells with viability greater than 90% are used for assays.
Seed cells UWB1.289 in each culture medium, incubate overnight at 37° C., 5% CO2.
Test compounds was diluted with DMSO in gradient. Add test compound in cell plate, incubate at 37° C.
Add compounds and H2O2 mixture into cell plate, incubate at 37° C. Use 100 nM PDD00017273 as positive control.
Remove solution and recovery cell, incubate at 37° C.
Remove solution in the plate and add Cold-MeOH, incubate at −20° C.
Add blocking buffer into cell plate, incubate at RT.
Add PAR mAb, incubate at 4° C. overnight.
Add secondary antibody and DNA stain DRAQ5, incubate at RT.
Wash 3 times with PBST and 2 times with PBS. Turn plate upside down and centrifuge 1000 rpm 1 min.
Scan plate using LI-COR for best result.
Calculate the % inhibition according to the following formula: % inhibition=(compound signal value−negative control signal average)/(positive control signal average−negative control signal average)×100. Use the formula Y=Bottom+(Top−Bottom)/(1+10^((Log IC50−X)*HillSlope)) to fit the curve to obtain the IC50 values.

Chain of PARG (389-976) (Q86W56 389-976): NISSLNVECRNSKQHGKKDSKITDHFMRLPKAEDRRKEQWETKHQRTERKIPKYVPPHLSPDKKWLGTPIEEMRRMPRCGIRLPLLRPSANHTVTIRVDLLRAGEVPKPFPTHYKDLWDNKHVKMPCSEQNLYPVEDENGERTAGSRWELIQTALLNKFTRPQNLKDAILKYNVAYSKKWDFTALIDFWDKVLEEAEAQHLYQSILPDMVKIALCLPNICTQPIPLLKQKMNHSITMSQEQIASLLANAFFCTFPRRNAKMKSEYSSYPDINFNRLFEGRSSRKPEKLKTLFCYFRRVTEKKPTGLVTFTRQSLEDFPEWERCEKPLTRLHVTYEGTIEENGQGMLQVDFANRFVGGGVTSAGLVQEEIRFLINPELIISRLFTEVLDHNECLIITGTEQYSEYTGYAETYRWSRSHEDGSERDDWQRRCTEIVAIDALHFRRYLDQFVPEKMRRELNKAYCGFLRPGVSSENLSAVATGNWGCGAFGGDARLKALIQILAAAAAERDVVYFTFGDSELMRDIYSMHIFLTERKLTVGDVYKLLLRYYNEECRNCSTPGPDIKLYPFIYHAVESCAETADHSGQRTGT

| SMILES | IC50 ([1]; Table 1, class symbol) [nM] | IC50 [2] [nM] | IC50 ([1]; Table 3, class symbol) [nM] | IC50 ([1]; Table 2, class symbol) [nM] | IC50 ([1]; Table 2, value in brackets) [nM] | IC50 ([1]; Table 1, value in brackets) [nM] |
| --- | --- | --- | --- | --- | --- | --- |
| CC(C)C(=O)N1CCN(c2cc(S(=O)(=O)NC3(C)CC3)cc3c(-c4nnc(C(F)F)s4)n[nH]c23)CC1 [Compound 3] | < 100 | 9.6 |  |  |  | 1 |
| Cc1nc(C)c(Cn2nc(-c3nnc(C(F)F)s3)c3cc(S(=O)(=O)NC4(C)CC4)ccc32)s1 [compound 1, reference compound] |  | 14.7 |  |  |  | 1.9 |
| CN(C)C(=O)N1CCN(c2cc(S(=O)(=O)NC3(C#N)CC3)cc3c(-c4nnc(C(F)F)s4)nn(C)c23)CC1 [Compound 33] |  |  |  | < 100 |  |  |

Further lines, with some results ahead:

| IC50 ([1]; Table 1, class symbol) [nM] | IC50 [2] [nM] | IC50 ([1]; Table 3, class symbol) [nM] | IC50 ([1]; Table 2, class symbol) [nM] | IC50 ([1]; Table 2, value in brackets) [nM] | SMILES | IC50 ([1]; Table 1, value in brackets) [nM] |
| --- | --- | --- | --- | --- | --- | --- |
| < 100 | 3.1 |  |  |  | CC(C)C(=O)N1CCN(c2cc(S(=O)(=O)NC3(C)CC3)cc3c(-c4nnc(C(F)F)s4)nn(C)c23)CC1 [Compound 5] | 0.5 |
|  | 13.4 | < 100 |  |  | Cc1cc(Cn2c(=O)n(Cc3cnc(C)s3)c(=O)c3cc(S(=O)(=O)NC4(C)CC4)ccc32)n(C)n1 [PDD00017273, reference compound] |  |
|  | 3.6 |  | < 100 | 0.6 | CC(C)C(=O)N1CCN(c2cc(S(=O)(=O)NC3(C#N)CC3)cc3c(-c4nnc(C(F)F)s4)nn(C)c23)CC1 [Compound 17] |  |
| < 100 |  |  |  |  | Cc1nc(C)c(Cn2nc(-c3nnc(C(F)F)s3)c3cc(S(=O)(=O)NC4(CF)CC4)ccc32)s1 [Compound 4] |  |
